Data on 13 compounds can be found in patent US5744621A, “Irreversible HIV protease inhibitors, intermediates, compositions and processes for the preparation thereof” (Lucky Limited., priority 1992, dated 1998).

The structures appear in SMILES notation.

In one series the target is T1, HIV-1 protease (Human immunodeficiency virus type 1 group M subtype B, UniProt P04585).
T1 construct: 2.6 nM of HIV-1 protease
Kind of series: Assay for inhibitory effect on HIV protease (residual enzyme activity, HPLC of substrate cleavage). The series is classed as biochemical. The conditions noted are these: pH 5.5; for Ki / kinact: HIV-1 protease 2.6 nM; for Ki: inhibition constant; for kinact: rate constant of covalent bond formation, read-out: kina (converted); for kinact/KI: second order rate constant, HIV-1 protease, read-out: kina /KI (converted). The procedure:
The inhibitory effect on HIV protease of the compounds of the present invention was determined by the following method.
To a buffer solution comprising 50 mM sodium acetate, pH 5.5, 1 mM dithiothreitol(DTT), 1 mM ethylenediaminetetraacetate (EDTA), 0.75M ammonium sulfate, 0.2M sodium chloride and 0.1% NP40(NONIDET P-40; Sigma Chemical Co., U.S.A.), were added various concentrations of a compound selected from Compound Nos. 1 to 92 to prepare a preincubation solution. Inhibition reaction was started with the addition of 2.6 nM of HIV-1 protease to the preincubation solution. Each 10 μl of the reaction solution was taken at a given time interval and added to 80 μl of assay solution containing 100 μM of reaction substrate in the same buffer solution as above to assay for the residual enzyme activity. In this context, an oligopeptide(KM =20 μM) consisting of 11 amino acids, i.e., Ser-Ile-Ala-Glu-(p-NO2)-Phe-Leu-Val-Arg-Ala-Lys-His, was used as a reaction substrate, which oligopeptide was to be cleaved in two by the breakage of amide bond between (P--NO2)-Phe and Leu upon the attack of HIV protease. The reaction rate was determined by subjecting the substrate before the reaction and the product after the reaction to HPLC separation and then measuring the relative amount of the product, using the strong absorbance of (p--NO2)-Phe at 280 nm. The amount of reduction in enzyme activity according to the elapsed time were measured and the natural logarithmic values(ln) of the measured amounts were plotted against time to obtain a linear graph and kobs was calculated from the slope of the linear graph.
The inhibition constant was calculated according to the following equation: [formula] wherein: kobs is a rate constant indicating the rate of reduction in enzyme activity according to the elapsed time under the presence of a given concentration of inhibitor,
kina is a rate constant indicating the rate of chemical reaction forming covalent bond between an enzyme and an inhibitor in Michaelis-Menten complex,
KI is an inhibition constant indicating the dissociation rate of Michaelis-Menten complex into an enzyme and an inhibitor, and
[I] means the inhibitor concentration.
The above equation is applicable to an experiment carried out under the condition in which the concentration of inhibitor is far higher than that of enzyme(Steady State Kinetic). […] The inhibition constants KI and kina and second order rate constant kina /KI were obtained by inputting the value of [E]/([E]+[EI]+[EI']) into KINSIM/FITSIM program. FIG. 1 exemplifies a result of the experiment determining the binding ratio of enzymes and inhibitors, which result was obtained by reacting the enzyme and the inhibitor in various concentration ratios for a sufficient time period(at least for 30 minutes), and then plotting the relative activity of the remaining enzyme against [conc. of inhibitor]/[conc. of enzyme].

For another series, the system named is HIV-1. Kind of series: Anti-viral activity: syncytium formation (Sup T1) or reverse transcriptase assay (H9). The note with it: Human immunodeficiency virus 1, SUP-T1. Format: cell-based. The procedure: The anti-viral activity of the compounds of the present invention was determined by measuring the concentration of the compounds that inhibits the proliferation of HIV by 50%(IC50) through a survey for syncytium formation or reverse transcriptase assay.
1×10^5 cells of each of H9(ATCC HTB 176) and Sup T1 cell lines were added to the wells of a 24-well microtiter plate and various concentrations so the compounds of the present invention were added thereto. 200 TCID50 (200-fold of 50% tissue culture infection dose) of HIV-1 inoculum and rpmi-1640 medium(Sigma Chemical Co., U.S.A) were added successively to the wells and the plate was incubated at 37° C. In case of Sup T1, the number of syncytium formed was investigated after 3 to 9 days. IC50 of each compound was determined by measuring the concentration of inhibitor that can reduce the number of syncytium by 50% compared with those formed in the same condition without the inhibitor.
In case of H9, three-quarters(3/4) of the culture medium in volume was refreshed every 3 days; and 6 ml of the culture fluid was centrifuged at 1000 rpm for 10 minutes. To 5 ml of the resulting supernatant were added 2.5 ml of 30% polyethyleneglycol(PEG, M.W. 6000-8000) and 0.4M NaCl. The resulting solution was allowed to stand at 0° C. overnight to precipitate virus particles. The solution was centrifuged at 2000 rpm for 45 minutes, the supernatant was discarded therefrom and the precipitate was diluted with 20 μl of a reverse transcriptase suspension buffer(50 mM tris-HCl, pH 7.5, 1 mM dithiothreitol, 20% glycerol, 0.25M KCl and 0.25% Triton X-100). The resulting suspension was stored in an Effendorf tube at -70° C. until used. A procedure of freezing said virus suspension for 2 minutes in dry ice and thawing same at 37° C. for 2 minutes was repeated three times and the resulting suspension was centrifuged at 4° C. The resulting supernatant was used in carrying out the reverse transcriptase assay.
10 μl of the said viral suspension was added to a solution of: 10 μl of buffer solution(250 mM tris-HCl, pH 7.5, 37.5 mM MgCl2, 0.25% triton X-100), 1.2 μl of 200 mM dithiothreitol, 5 μl of 10 μM oligo(dT)-poly(A)(Boeringer Manheim, 12-18 oligomer), 1 μl(1 μCi) of ^3 H-TTP(Thymidinetri-phosphate) and 23.6 μl of water; and the resulting mixture was placed at 37° C. After 1 hour, the mixture was poured onto a WHATMAN DEB1 filter and the filter was washed three times with 5 ml of 2×SSC buffer solution(17.53 g of sodium chloride, 8.82 g of sodium citrate, pH 7.0, 1 liter of water) for about 10 minutes each time and twice with 95% ethanol for 10 seconds. The filter was put onto aluminium foil and dried with an infra-red lamp. The amount of radioactivity was counted using a liquid scintillation counter. IC50 of each compound was determined by measuring the concentration of inhibitor that can reduce the activity of reverse transcriptase by 50%.

A short description of series [1]: Cytotoxicity in H9 or Sup T1 cells (trypan blue dye exclusion). Format: cell-based. The note with it: human; concentration that causes death of cells by 50%; H9 or Sup T1 cells, 37° C; read-out: CT50 (the source's name). The procedure:
To determine the cytotoxicity of the compounds of the present invention, 0.1 μM to 100 μM of the novel compounds were added to H9 cell or Sup T1 cell and the mixture was cultured on a rpmi-1640 medium at 37° C. The medium was refreshed every 3 days and the extent of cell proliferation was observed using Hemacytometer according to the trypan blue dye exclusion technique which is well known in the art. CT50 (i.e., concentration that causes death of cells by 50%) was determined. For reference, AZT(Burrows-Wellcome), A-75925 (Abbott, C2 symmetric compound) and Ro-31-8959(F. Hofmann-La Roche) were used as control compounds.

For `CC[C@H](C)[C@H](NC(=O)C[C@@H]1O[C@@H]1[C@H](Cc1ccccc1)NC(=O)[C@H](CC(N)=O)NC(=O)c1ccc2ccccc2n1)C(=O)NC` [compound 25, N-{5-L-[[N-(2-quinolinecarbonyl)-L-asparaginyl]amino]-(4R,3S)-epoxy-6-phenylhexanoyl}-L-isoleucinyl-methylamide], at HIV-1 protease, the Ki was 20 nM, the kinact was 0.003 s⁻¹ and the kinact/KI was 150000 M⁻¹ s⁻¹. In the series with HIV-1, it took 500 nM to reach half-maximal inhibition (IC50). Besides, in series [1], the CC50 was above 100000 nM.

On HIV-1 protease, `CC[C@H](C)[C@H](NC(=O)C[C@@H]1O[C@@H]1[C@H](Cc1ccccc1)NC(=O)[C@H](CC(N)=O)NC(=O)c1ccc2ccccc2n1)C(=O)N(C)C` [compound 26] gave a Ki above 10000 nM. This compound came in with an IC50 in the series on HIV-1 of 500 nM. Further, the CC50 in series [1] is above 100000 nM.

In the case of `CC[C@H](C)[C@H](NC(=O)C[C@@H]1O[C@@H]1[C@H](Cc1ccccc1)NC(=O)[C@H](CC(N)=O)NC(=O)c1ccc2ccccc2n1)C(N)=O` [compound 27, N-{5-L-[[N-(2-quinolinecarbonyl)-L-asparaginyl]amino]-(4R,3S)-epoxy-6-phenylhexanoyl}-L-isoleucinyl amide], at HIV-1 protease, the Ki came out at 3 nM, the kinact is 0.00333 s⁻¹ and the kinact/KI is 1.12e+06 M⁻¹ s⁻¹. The compound further returned an IC50 in the series on HIV-1 of 1000 nM. Also, in series [1], the CC50 is around 10000 nM.

For the compound `CC[C@H](C)[C@H](NC(=O)C[C@@H]1O[C@@H]1[C@H](Cc1ccccc1)NC(=O)[C@H](CC(N)=O)NC(=O)c1ccc2ccccc2n1)C(=O)NOC` [compound 28, N-{5-L-[[N-(2-quinolinecarbonyl)-L-asparaginyl]amino]-(4R,3S)-epoxy-6-phenylhexanoyl}-L-isoleucinyl-(N-methoxy)-amine], at HIV-1 protease, the inhibition constant (Ki) came out at 15 nM, the kinact is 0.00333 s⁻¹ and the kinact/KI is 217000 M⁻¹ s⁻¹. The compound further showed an IC50 in the series with HIV-1 of 600 nM. Moreover, the CC50 in series [1] was above 100000 nM.

As to `CC(C)[C@H](NC(=O)C[C@@H]1O[C@@H]1[C@H](Cc1ccccc1)NC(=O)[C@H](CC(N)=O)NC(=O)c1ccc2ccccc2n1)C(N)=O` [compound 32], at HIV-1 protease, the affinity, expressed as Ki, was 5 nM; the kinact was 0.00367 s⁻¹; the kinact/KI was 733000 M⁻¹ s⁻¹. In the series on HIV-1, this compound registered an IC50 of 500 nM. Besides, in series [1], the CC50 is above 100000 nM.

At HIV-1 protease, `CC[C@H](C)[C@H](NC(=O)C[C@@H]1O[C@@H]1[C@H](Cc1ccccc1)NC(=O)[C@@H](NC(=O)N(C)Cc1ccccn1)C(C)C)C(=O)OC` [compound 35, N-{N-L-[[N,N-(2-pyridylmethyl)(methyl)-amino]carbonylvalinyl]amino-(4R,3S)-epoxy-6-phenyl-hexanoyl}-L-isoleucine methyl ester] came in with an inhibitory constant (Ki) above 10000 nM. This compound also gave an IC50 in the series with HIV-1 of 1000 nM. Also, the CC50 in series [1] was above 100000 nM.

`CC[C@H](C)[C@H](NC(=O)C[C@@H]1O[C@@H]1[C@H](CC1CCCCC1)NC(=O)[C@@H](NC(=O)N(C)Cc1ccccn1)C(C)C)C(=O)OC` [compound 39, N-{5-L-[[N,N-(2-pyridylmethyl)(methyl)-amino]carbonylvalinyl]amino-(4R, R3S)-epoxy-6-(cyclohexylmethyl)-hexanoyl}-L-isoleucine methyl ester] came in with a Ki on HIV-1 protease above 10000 nM. Also, the IC50 in the series with HIV-1 is 1000 nM. Also, the CC50 in series [1] is above 100000 nM.

As for `CC[C@H](C)[C@H](NC(=O)C[C@@H]1O[C@@H]1[C@H](Cc1ccccc1)NC(=O)[C@H](CC(N)=O)NC(=O)c1ccc2ccccc2n1)C(=O)NO` [compound 40], at HIV-1 protease, the Ki is 33 nM, the kinact is 0.00417 s⁻¹ and the kinact/KI is 1270 M⁻¹ s⁻¹. In the series on HIV-1, this compound showed an IC50 of 700 nM. For the same compound, the CC50 in series [1] was above 100000 nM.

Take `CC(C)[C@H](Cc1ccccc1)NC(=O)C[C@@H]1O[C@@H]1[C@H](Cc1ccccc1)NC(=O)[C@H](CC(N)=O)NC(=O)c1ccc2ccccc2n1` [compound 42, [[(5S)-[N-(2-quinolinecarbonyl)-L-asparaginyl]amino]-(4R,3S)-epoxy-6-phenyl-1-hexanoyl]-[(2S)-[1-phenyl-3-methyl]butyl]amide]: on HIV-1 protease, the Ki worked out at 0.8 nM, the kinact is 0.0433 s⁻¹ and the kinact/KI is 5.5e+07 M⁻¹ s⁻¹. This compound also came in with an IC50 in the series with HIV-1 of 20 nM. Further, the CC50 in series [1] was above 100000 nM.

For `CC(C)[C@@H](NC(=O)C[C@@H]1O[C@@H]1[C@H](Cc1ccccc1)NC(=O)[C@H](CC(N)=O)NC(=O)c1ccc2ccccc2n1)c1ccccc1` [compound 43], at HIV-1 protease, the Ki turned out to be 3.2 nM, the kinact was 0.0283 s⁻¹ and the kinact/KI was 88300 M⁻¹ s⁻¹. In the series with HIV-1, the IC50 is 50 nM. The CC50 in series [1] is above 100000 nM.

Consider `CC(C)[C@H](CCc1ccccc1)NC(=O)C[C@@H]1O[C@@H]1[C@H](Cc1ccccc1)NC(=O)[C@H](CC(N)=O)NC(=O)c1ccc2ccccc2n1` [compound 44], for which, on HIV-1 protease, the affinity, expressed as Ki, was 11 nM; the kinact is 0.0417 s⁻¹; the kinact/KI was 3.83e+06 M⁻¹ s⁻¹. This compound also came in with an IC50 with HIV-1 of 300 nM. Further, the CC50 in series [1] was above 100000 nM.

With `CC(C)[C@H](CCCc1ccccc1)NC(=O)C[C@@H]1O[C@@H]1[C@H](Cc1ccccc1)NC(=O)[C@H](CC(N)=O)NC(=O)c1ccc2ccccc2n1` [compound 45], at HIV-1 protease, the Ki turned out to be 1.2 nM, the kinact is 0.04 s⁻¹ and the kinact/KI is 3.33e+07 M⁻¹ s⁻¹. The compound further came in with an IC50 with HIV-1 of 200 nM. Further, the CC50 in series [1] is above 100000 nM.

As for `CC(C)C(NC(=O)C[C@@H]1O[C@@H]1[C@H](Cc1ccccc1)NC(=O)[C@H](CC(N)=O)NC(=O)c1ccc2ccccc2n1)C(C)C` [compound 46], at HIV-1 protease, affinity was put at a Ki of 0.9 nM, the kinact is 0.00267 s⁻¹ and the kinact/KI was 3000 M⁻¹ s⁻¹. This compound also gave a concentration for half-maximal inhibition (IC50) with HIV-1 of 40 nM. Moreover, the CC50 in series [1] was above 100000 nM.
